molecular target: Estrogen receptor beta (Homo sapiens) (UniProt Q92731); assay: Binding affinity for human ER(estrogen receptor)beta
Sequence (Q92731 whole entry): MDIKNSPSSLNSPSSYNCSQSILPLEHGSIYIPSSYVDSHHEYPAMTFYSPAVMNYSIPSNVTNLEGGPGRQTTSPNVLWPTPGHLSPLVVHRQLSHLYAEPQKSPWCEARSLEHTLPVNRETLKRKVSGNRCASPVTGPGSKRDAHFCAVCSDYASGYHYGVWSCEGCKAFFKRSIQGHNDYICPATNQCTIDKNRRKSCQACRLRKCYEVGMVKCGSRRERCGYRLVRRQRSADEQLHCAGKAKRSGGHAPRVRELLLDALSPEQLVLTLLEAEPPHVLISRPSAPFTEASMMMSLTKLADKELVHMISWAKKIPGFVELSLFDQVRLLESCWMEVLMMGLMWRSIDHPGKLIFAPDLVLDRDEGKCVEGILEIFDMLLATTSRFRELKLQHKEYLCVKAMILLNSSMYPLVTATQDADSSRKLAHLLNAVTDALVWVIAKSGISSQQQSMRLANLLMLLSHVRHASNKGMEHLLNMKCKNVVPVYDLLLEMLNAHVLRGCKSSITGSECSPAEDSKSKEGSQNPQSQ

| Relative binding affinity | Structure (SMILES) |
| --- | --- |
| 6.5 | Oc1ccc2c(c1)CCC1=C2CCc2cc(O)ccc21 |
| 254 | C[C@@H]1Cc2cc(O)ccc2C2=C1c1ccc(O)cc1C[C@@H]2C |
| 92.3 | CCCC1Cc2cc(O)ccc2C2=C1c1ccc(O)cc1CC2CCC (stereo not drawn) |
| 75 | CC1Cc2cc(O)ccc2C2=C1c1ccc(O)cc1C[C@@H]2C (single isomer, unassigned) |
| 76 | CC1Cc2cc(O)ccc2C2=C1c1ccc(O)cc1C[C@H]2C (single isomer, unassigned) |
| 26 | CCC[C@@H]1Cc2cc(O)ccc2C2=C1c1ccc(O)cc1C[C@H]2CCC |
| 5.1 | CCC[C@H]1Cc2cc(O)ccc2C2=C1c1ccc(O)cc1C[C@@H]2CCC |
| 100 | C[C@]12CC[C@@H]3c4ccc(O)cc4CC[C@H]3[C@@H]1CC[C@@H]2O |
